From USRE39707E1, “Camptothecin derivatives” (Catholic Healthcare West, priority 2001, dated 2007)
Like-named read-outs stand apart in the source and are kept apart here.

What was measured:
HCT116 = experiment: Cell colony formation assay, HCT116 cells; assay type: cell-based, human; conditions: 72 hours drug exposure
Experimental: This example provides directions for growing cells and testing compounds of the invention for their effect on the growth of the cells. All cells were purchased from DCIDC Tumor Repository, NCI, NIH.
The cells were incubated in a CO2 incubator at 37° C. for 5 hours for attachment to the bottom of Petri dishes. Drugs were made fresh in medium at ten times the final concentration, and then 0.3 ml of this stock solution was added to the 2.7 ml of medium in the dish. The cells were then incubated with drugs for 72 hours at 37° C. At the end of the incubation the drug-containing media were decanted, the dishes were rinsed with 4 ml of Hank's Balance Salt Solution (HBSS), 5 ml of fresh medium was added, and the dishes were returned to the incubator for colony formation. The cell colonies were counted using colony counter after incubation for 7 days for HCT116 cells and PC-3 cells and 8 days for VM46 cells, respectively.

C3H/HeJ mice = tested on: C3H/HeJ mice
Experimental: This example provides directions for performing in vivo toxicity tests of the compounds of the invention on C3H/HeJ mice.
Acute toxicities of the compounds of this invention are evaluated on C3H/HeJ mice (body weight 18-22 g). The MTD40 (maximum tolerated dose at day 40) values were determined by the standard procedure described by Gad and Chengelis (see, for example, “Acute Toxicology Testing,” 2nd Ed., Shayne O. Gad and Christopher P. Chengelis, pp. 186-195 (Academic Press)). In the consecutive type studies, 2 mice were dosed at low and moderate doses of 40 and 100 mg/kg. If no severe and irreversible toxicity (euthanasia is required) occurs at these doses, a new pair of animals was initiated at 180 mg/kg, which is 1.8 times higher than 100 mg/kg. Sequential dosages (about 3 doses on 3 pairs of animals, i.e. 2 mice for each drug dose) were increased by a factor of 1.8 until severe and irreversible toxicity (euthanasia is required) occurred. Then another pair of animals was initiated at the highest nonlethal dosage, and successive dosages were increased by a factor of 1.15. The result of this exercise was two dosages, one apparently nonlethal and the other lethal if severe and irreversible toxicity occurs and euthanasia is required, separated by a factor of 1.15. Six mice were dosed at each dosage. If no severe and irreversible toxicity occurred at the lower dosage and at least one with severe and irreversible toxicity occurred at the higher dose, then the lower dose was considered to be the MTD. The compounds of this invention were administered to C3H/HeJ mice by intraperitoneal injection. Drug toxicity was evaluated on mice checked daily for 45 days.

[1] = maximum tolerated dose at day 40, C3H/HeJ mice

Structure (SMILES)	In Vitro Efficacy: Survival (%) of HCT116 (HCT116; 10 nM) [%]	In Vitro Efficacy: Survival (%) of HCT116 (HCT116; 100 nM) [%]	In Vivo Toxicity MTD40 (ip, mg/kg) in C3H/Hej Mice (C3H/HeJ mice; [1]) [mg/kg]	In Vivo Toxicity MTD40 (ip, mg/kg) in C3H/Hej Mice (C3H/HeJ mice; mouse, in vivo) [mg/kg]	In Vitro Efficacy: Survival (%) of HCT116 (HCT116; 1 nM) [%]
CCc1c2c(nc3ccc(OC(=O)N4CCC(N5CCCCC5)CC4)cc13)-c1cc3c(c(=O)n1C2)COC(=O)[C@]3(O)CC [CPT 11, 7-ethyl-10[4-(1-piperidino)-1-piperidino]carbonyloxy CPT, reference compound]	100	90.52	–	–	–
CCC1(OC(=O)COc2ccc(OC)cc2)C(=O)OCc2c1cc1n(c2=O)Cc2cc3ccccc3nc2-1 (stereo not drawn) [Example 000314, Camptothecin-20-O-ester of 4-methoxyphenoxyacetic acid]	–	0	>150	–	–
CCC1(OC(=O)COc2ccc(Cl)cc2)C(=O)OCc2c1cc1n(c2=O)Cc2cc3ccccc3nc2-1 (stereo not drawn) [Example 000517, Camptothecin-20-Oester of 4-chlorophenoxyacetic acid]	0	0	–	<150	100
CCC1(OC(=O)COc2ccc(C)cc2)C(=O)OCc2c1cc1n(c2=O)Cc2cc3ccccc3nc2-1 (stereo not drawn) [Example 000518, Camptothecin-20-O-ester of 4-methylphenoxyacetic acid]	0	0	<150	–	97.31
CCC1(OC(=O)COc2ccc3c(c2)CC[C@@H]2[C@@H]3CC[C@]3(C)C(=O)CC[C@@H]23)C(=O)OCc2c1cc1n(c2=O)Cc2cc3ccccc3nc2-1 (stereo partly drawn) [Example 000531, Camptothecin-20-O-ester of estra-1,3,5(10)-trien-17-one-3-oxyacetic acid]	0	0	–	>150	81.45
CCC1(OC(=O)COc2c(Cl)cc(F)cc2Cl)C(=O)OCc2c1cc1n(c2=O)Cc2cc3ccccc3nc2-1 (stereo not drawn) [Example 000602, Camptothecin-20-O-ester of 2,6-dichloro-4-fluorophenoxyacetic acid]	0	0	>150	–	74.00
CCC1(OC(=O)COc2ccc([N+](=O)[O-])c(C(F)(F)F)c2)C(=O)OCc2c1cc1n(c2=O)Cc2cc3ccccc3nc2-1 (stereo not drawn) [Example 000605, Camptothecin-20-O-ester of 4-nitro-3-trifuoromethylphenoxyacetic acid]	0	0	>150	–	88.00
CC[C@@]1(OC(=O)COc2ccc(C)nc2I)C(=O)OCc2c1cc1n(c2=O)Cc2cc3ccccc3nc2-1 [Example 000616, Camptotheci-20-O-ester of 6-iodo-2-methylpyridine-5-oxyacetic acid]	0	0	>150	–	84.85
CC[C@@]1(OC(=O)COc2nc3ccccc3s2)C(=O)OCc2c1cc1n(c2=O)Cc2cc3ccccc3nc2-1 [Example 000727, Camptothecin-20-O-ester of benzothiazole-2-oxyacetic acid]	0	0	–	–	96.81
CCC1(OC(=O)COc2ccc(C#N)c(F)c2)C(=O)OCc2c1cc1n(c2=O)Cc2cc3ccccc3nc2-1 (stereo not drawn) [Example 001030, Camptothecin-20-O-ester of 4-cyano-3-fluorophenoxyacetic acid]	0	–	–	–	86.90
